Measurements taken from ChEMBL document CHEMBL1781923, “Synthesis and anti-tumor evaluation of panaxadiol derivatives” (Eur J Med Chem, 2011).

Tests used:
[1] = Cytotoxicity against human ES2 cells assessed as cell viability at 25 uM after 48 hrs by MTT assay; assay type: functional; conditions: ES-2, 48 h, read-out: Activity
A549 [2] = assay: Cytotoxicity against human A549 cells after 48 hrs by MTT assay; assay type: functional, cell-based; conditions: A549, 48 h
U2OS [3] = assay: Cytotoxicity against human U2OS cells after 48 hrs by MTT assay; assay type: functional, cell-based
U2OS [4] = assay: Cytotoxicity against human U2OS cells assessed as cell viability at 25 uM after 48 hrs by MTT assay; assay type: functional; conditions: read-out: Activity
HepG2 [5] = assay: Cytotoxicity against human HepG2 cells assessed as cell viability at 25 uM after 48 hrs by MTT assay; assay type: functional; conditions: HepG2, 48 h, read-out: Activity
A549 [6] = assay: Cytotoxicity against human A549 cells assessed as cell viability at 100 uM after 48 hrs by MTT assay; assay type: functional; conditions: A549, 48 h, read-out: Activity
U2OS [7] = assay: Cytotoxicity against human U2OS cells assessed as cell viability at 50 uM after 48 hrs by MTT assay; assay type: functional; conditions: read-out: Activity
A549 [8] = assay: Cytotoxicity against human A549 cells assessed as cell viability at 50 uM after 48 hrs by MTT assay; assay type: functional; conditions: A549, 48 h, read-out: Activity
HepG2 [9] = assay: Cytotoxicity against human HepG2 cells assessed as cell viability at 50 uM after 48 hrs by MTT assay; assay type: functional; conditions: HepG2, 48 h, read-out: Activity
HepG2 [10] = assay: Cytotoxicity against human HepG2 cells after 48 hrs by MTT assay; assay type: functional, cell-based; conditions: HepG2, 48 h
[11] = Cytotoxicity against human ES2 cells assessed as cell viability at 50 uM after 48 hrs by MTT assay; assay type: functional; conditions: ES-2, 48 h, read-out: Activity
[12] = Cytotoxicity against human ES2 cells after 48 hrs by MTT assay; assay type: functional, cell-based; conditions: ES-2, 48 h

| SMILES | viability at 25 µM [1] | IC50 (A549 [2]) | IC50 (U2OS [3]) | viability at 25 µM (U2OS [4]) | viability at 25 µM (HepG2 [5]) | viability at 100 µM (A549 [6]) | viability at 50 µM (U2OS [7]) | viability at 50 µM (A549 [8]) | viability at 50 µM (HepG2 [9]) | IC50 (HepG2 [10]) | viability at 50 µM [11] | IC50 [12] |
| --- | --- | --- | --- | --- | --- | --- | --- | --- | --- | --- | --- | --- |
| CC1(C)CCC[C@](C)([C@H]2CC[C@]3(C)[C@@H]2[C@H](O)C[C@@H]2[C@@]4(C)CC[C@H](OC(=O)C5CCCN5)C(C)(C)[C@@H]4CC[C@]23C)O1 (stereo partly specified) | 10.4% | 7.63 µM | 14.4 µM | 12.4% | 5.72% | 14.1% | 8.72% | 19.5% | 6.39% | 8.91 µM | 6.04% | 16.7 µM |
| C=CC(=O)O[C@H]1CC[C@]2(C)[C@H]3C[C@@H](O)[C@@H]4[C@@H]([C@@]5(C)CCCC(C)(C)O5)CC[C@@]4(C)[C@]3(C)CC[C@H]2C1(C)C |  | > 50 µM | 20.8 µM |  |  |  |  |  |  | > 50 µM |  | 8.02 µM |
| CC(C)=CCC[C@@](C)(O)[C@H]1CC[C@]2(C)[C@@H]1[C@H](O)C[C@@H]1[C@@]3(C)CC[C@H](O[C@@H]4O[C@H](CO)[C@@H](O)[C@H](O)[C@H]4O[C@@H]4O[C@H](CO)[C@@H](O)[C@H](O)[C@H]4O)C(C)(C)[C@@H]3CC[C@]12C | 82% | > 100 µM | > 100 µM | 72.2% | 81.3% | 71.1% | 81.3% | 75.6% | 76.2% | > 100 µM | 74.5% | > 100 µM |
| CC1(C)CCC[C@](C)([C@H]2CC[C@]3(C)[C@@H]2[C@H](O)C[C@@H]2[C@@]4(C)CC[C@H](OC(=O)C(N)Cc5ccccc5)C(C)(C)[C@@H]4CC[C@]23C)O1 (stereo partly specified) | 10.3% | 18.6 µM | 16.4 µM | 15% | 9.95% | 15.2% | 10.9% | 20.5% | 8.82% | 8.82 µM | 8.58% | 15.2 µM |
| C=CCCC(=O)O[C@H]1CC[C@]2(C)[C@H]3C[C@@H](O)[C@@H]4[C@@H]([C@@]5(C)CCCC(C)(C)O5)CC[C@@]4(C)[C@]3(C)CC[C@H]2C1(C)C |  | > 50 µM | 39 µM |  |  |  |  |  |  | > 50 µM |  | 11.8 µM |
| C/C=C(\C)C(=O)O[C@H]1CC[C@]2(C)[C@H]3C[C@@H](O)[C@@H]4[C@@H]([C@@]5(C)CCCC(C)(C)O5)CC[C@@]4(C)[C@]3(C)CC[C@H]2C1(C)C |  | > 50 µM | 14.7 µM |  |  |  |  |  |  | > 50 µM |  | 4.26 µM |
| C/C=C/C=C/C(=O)O[C@H]1CC[C@]2(C)[C@H]3C[C@@H](O)[C@@H]4[C@@H]([C@@]5(C)CCCC(C)(C)O5)CC[C@@]4(C)[C@]3(C)CC[C@H]2C1(C)C |  | > 50 µM | 43.3 µM |  |  |  |  |  |  | > 50 µM |  | 13.7 µM |
| CCCCCCCC/C=C/CCCCCCCC(=O)O[C@H]1CC[C@]2(C)[C@H]3C[C@@H](O)[C@@H]4[C@@H]([C@@]5(C)CCCC(C)(C)O5)CC[C@@]4(C)[C@]3(C)CC[C@H]2C1(C)C |  | > 50 µM | 16.6 µM |  |  |  |  |  |  | > 50 µM |  | 20.9 µM |
| CC1(C)CCC[C@](C)([C@H]2CC[C@]3(C)[C@@H]2[C@H](O)C[C@@H]2[C@@]4(C)CC[C@H](O)C(C)(C)[C@@H]4CC[C@]23C)O1 [PANAXADIOL] | 18.8% | 43.1 µM | 26.8 µM | 53.4% | 69% | 24.5% | 25.7% | 36% | 37.7% | 37.9 µM | 12.4% | 5.61 µM |
| C=CCCCCCCCCC(=O)O[C@H]1CC[C@]2(C)[C@H]3C[C@@H](O)[C@@H]4[C@@H]([C@@]5(C)CCCC(C)(C)O5)CC[C@@]4(C)[C@]3(C)CC[C@H]2C1(C)C |  | > 50 µM | 31.6 µM |  |  |  |  |  |  | > 50 µM |  | 19.4 µM |
| CSCCC(N)C(=O)O[C@H]1CC[C@]2(C)[C@H]3C[C@@H](O)[C@@H]4[C@@H]([C@@]5(C)CCCC(C)(C)O5)CC[C@@]4(C)[C@]3(C)CC[C@H]2C1(C)C (stereo partly specified) | 13% | 22.4 µM | 16.8 µM | 18.4% | 28.4% | 12.7% | 11.6% | 21.6% | 8.56% | 11.8 µM | 6.4% | 13.1 µM |
| CC1(C)CCC[C@](C)([C@H]2CC[C@]3(C)[C@@H]2[C@H](O)C[C@@H]2[C@@]4(C)CC[C@H](OC(=O)CN)C(C)(C)[C@@H]4CC[C@]23C)O1 | 7.51% | 14 µM | 13.7 µM | 13% | 10.3% | 13.5% | 12% | 18.7% | 10% | 11.3 µM | 6.66% | 9.9 µM |
| CC(C)CC(N)C(=O)O[C@H]1CC[C@]2(C)[C@H]3C[C@@H](O)[C@@H]4[C@@H]([C@@]5(C)CCCC(C)(C)O5)CC[C@@]4(C)[C@]3(C)CC[C@H]2C1(C)C (stereo partly specified) | 10.8% | 24.9 µM | 18 µM | 18.1% | 28.1% | 10.5% | 14.3% | 18.1% | 15.3% | 5.03 µM | 6.91% | 17.9 µM |
| CC(C)C(N)C(=O)O[C@H]1CC[C@]2(C)[C@H]3C[C@@H](O)[C@@H]4[C@@H]([C@@]5(C)CCCC(C)(C)O5)CC[C@@]4(C)[C@]3(C)CC[C@H]2C1(C)C (stereo partly specified) | 14.6% | 31.8 µM | 17.3 µM | 16.4% | 26.4% | 15.4% | 13.7% | 21.2% | 11.7% | 9.29 µM | 6.47% | 16.2 µM |
| CCC/C=C/C(=O)O[C@H]1CC[C@]2(C)[C@H]3C[C@@H](O)[C@@H]4[C@@H]([C@@]5(C)CCCC(C)(C)O5)CC[C@@]4(C)[C@]3(C)CC[C@H]2C1(C)C |  | > 50 µM | 43.9 µM |  |  |  |  |  |  | > 50 µM |  | 13.7 µM |
| CC/C=C(\C)C(=O)O[C@H]1CC[C@]2(C)[C@H]3C[C@@H](O)[C@@H]4[C@@H]([C@@]5(C)CCCC(C)(C)O5)CC[C@@]4(C)[C@]3(C)CC[C@H]2C1(C)C |  | > 50 µM | 38 µM |  |  |  |  |  |  | > 50 µM |  | 24.2 µM |
| CCCCC/C=C/C/C=C/CCCCCCCC(=O)O[C@H]1CC[C@]2(C)[C@H]3C[C@@H](O)[C@@H]4[C@@H]([C@@]5(C)CCCC(C)(C)O5)CC[C@@]4(C)[C@]3(C)CC[C@H]2C1(C)C |  | > 50 µM | 32.1 µM |  |  |  |  |  |  | > 50 µM |  | 17.9 µM |
| CCCCCCCC/C=C/CCCCCCCCCCCC(=O)O[C@H]1CC[C@]2(C)[C@H]3C[C@@H](O)[C@@H]4[C@@H]([C@@]5(C)CCCC(C)(C)O5)CC[C@@]4(C)[C@]3(C)CC[C@H]2C1(C)C |  | > 50 µM | 40.5 µM |  |  |  |  |  |  | > 50 µM |  | 14.8 µM |
